Data published in the supplement of paper PMC10307832.

What was measured:
Assay in all cases: relative viability (nuclei count vs DMSO), 5 days (fraction); higher = more cells survive
Kobe2602 + Phenformin = compound: C1=CC(=CC=C1NC(=S)NNC2=C(C=C(C=C2[N+](=O)[O-])C(F)(F)F)[N+](=O)[O-])F [Kobe2602] + N=C(N)NC(=N)NCCc1ccccc1 [Phenformin] (partner 250 µM)
In short: (§1)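 Relative viability divides the nuclei count in treated wells by that in vehicle wells. Lung cancer cell lines were seeded in 1536-well plates, dosed by pin tool the next day, and fixed and stained after 5 days in one step with final 0.05% Triton X-100, 1% formaldehyde and 1 ug/ml Hoechst. Dosing was a single drug or a fixed anchor-drug dose plus five library-drug doses (not always all listed) in √10 steps, and values are medians of duplicate plates imaged at 4×.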

Kobe2602 + Vorinostat = compound: C1=CC(=CC=C1NC(=S)NNC2=C(C=C(C=C2[N+](=O)[O-])C(F)(F)F)[N+](=O)[O-])F [Kobe2602] + O=C(CCCCCCC(=O)Nc1ccccc1)NO [Vorinostat] (partner 1 µM)
In short: as §1

Cabozantinib + OSI-027 = compound: COc1cc2nccc(Oc3ccc(NC(=O)C4(C(=O)Nc5ccc(F)cc5)CC4)cc3)c2cc1OC [Cabozantinib] + COc1cccc2cc(-c3nc([C@H]4CC[C@H](C(=O)O)CC4)n4ncnc(N)c34)[nH]c12 [OSI-027] (partner 0.5 µM)
In short: as §1

Zosuquidar + Foretinib = compound: O[C@@H](COc1cccc2ncccc12)CN1CCN([C@@H]2c3ccccc3[C@@H]3[C@H](c4ccccc42)C3(F)F)CC1 [Zosuquidar] + COc1cc2c(Oc3ccc(NC(=O)C4(C(=O)Nc5ccc(F)cc5)CC4)cc3F)ccnc2cc1OCCCN1CCOCC1 [Foretinib] (partner 0.25 µM)
In short: as §1

Cell Line: UMC-11
- relative viability (Kobe2602 + Phenformin; first compound 0.2 µM): 0.358
- relative viability (Kobe2602 + Phenformin; first compound 0.6325 µM): 0.336
- relative viability (Kobe2602 + Phenformin; first compound 2 µM): 0.334
- relative viability (Kobe2602 + Phenformin; first compound 6.325 µM): 0.335
- relative viability (Kobe2602 + Phenformin; first compound 20 µM): 0.306
- relative viability (Kobe2602 + Vorinostat; first compound 0.2 µM): 0.428
- relative viability (Kobe2602 + Vorinostat; first compound 0.6325 µM): 0.39
- relative viability (Kobe2602 + Vorinostat; first compound 2 µM): 0.336
- relative viability (Kobe2602 + Vorinostat; first compound 6.325 µM): 0.409
- relative viability (Kobe2602 + Vorinostat; first compound 20 µM): 0.377
- relative viability (Cabozantinib + OSI-027; first compound 0.02 µM): 0.45
- relative viability (Cabozantinib + OSI-027; first compound 0.06325 µM): 0.49
- relative viability (Cabozantinib + OSI-027; first compound 0.2 µM): 0.518
- relative viability (Cabozantinib + OSI-027; first compound 0.6325 µM): 0.547
- relative viability (Cabozantinib + OSI-027; first compound 2 µM): 0.432
- relative viability (Zosuquidar + Foretinib; first compound 0.01 µM): 1.07
- relative viability (Zosuquidar + Foretinib; first compound 0.03162 µM): 1.01
- relative viability (Zosuquidar + Foretinib; first compound 0.1 µM): 1.19
- relative viability (Zosuquidar + Foretinib; first compound 0.3162 µM): 1.12
- relative viability (Zosuquidar + Foretinib; first compound 1 µM): 0.987
